Experimental data: patent publication US9890166B2, “Imidazopyrrolidine derivatives and their use in the treatment of disease” (NOVARTIS AG, priority 2013, dated 2018)

Experiments:
THP-1 cells = test: Cell growth inhibition assay (CellTiter-Glo), THP-1; conditions: for GI50: Homo sapiens, THP-1, read-out: THP-1 GI50; for THP-1 TGI: THP-1 cells, total growth inhibition, CellTiter-Glo;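 on all read-outs here: viability read as cellular ATP luminescence after 4 days, 3-fold dilution series from 10 µM, DMSO vehicle-treated cells taken as 100%, cell-free medium wells as −100%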
BRD4 (His-Brd4(44-477)) = BRD4 (His-Brd4(44-477)) (Homo sapiens (Human), UniProt O60885); test: TR-FRET in-vitro binding assay for BRD4; conditions: single determination or n ≧ 2 independent determinations, read-out: Biochemical IC50 BRD4
Description: (§1) TR-FRET In-Vitro Binding Assays for BRD2, BRD3, and BRD4:
(§2) All assays were performed in 384 well microtiter plates. Each assay plate contained 8-point serial dilutions for 40 test compounds, plus 16 high- and 16 low controls. Liquid handling and incubation steps were done on an Innovadyne Nanodrop Express equipped with a robotic arm (Thermo CatX, Perkin Elmer/Caliper Twister II) and an incubator (Liconic STX40, Thermo Cytomat 2C450). The assay plates were prepared by addition of 50 nl per well of compound solution in 90% DMSO HummingBird nanodispenser (Zinsser Analytic). […] Reactions were incubated at 30° C. for 35 minutes. […] After 35 minutes incubation at 30° C., plates were measured in a Perkin Elmer EnVision multilabel reader.
(§3) Preparation of Compound Dilutions
(§4) Test compounds were dissolved in DMSO (10 mM) and transferred into 1.4 mL flat bottom or V-shaped Matrix tubes carrying a unique 2D matrix. The stock solutions were stored at […] if not used immediately. For the test procedure the vials were defrosted and identified by a scanner whereby a working sheet was generated that guided the subsequent working steps.
(§5) Compound dilutions were made in 96 well plates. This format enabled the assay of maximally 40 individual test compounds at 8 concentrations (single points) including 4 reference compounds, if desired (known BET inhibitors from the prior art, for this and other assays of the type disclosed herein). The dilution protocol included the production of “pre-dilution plates”, “master plates” and “assay plates”.
(§6) Pre-Dilution Plates: 96 polypropylene well plates were used as pre-dilution plates. A total of 4 pre-dilution plates were prepared including 10 test compounds each on the plate positions A1-A10, one standard compound at A11 and one DMSO control at A12. All dilution steps were done on a HamiltonSTAR robot.
(§7) These plates were used directly for the assay which was performed in a total volume of 13.55 μL.

K-562 cells = test: Cell growth inhibition assay (CellTiter-Glo), K-562; conditions: for GI50: Homo sapiens, K562, read-out: K-562 GI50; for K-562 TGI: K-562 cells, total growth inhibition, CellTiter-Glo;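 on all read-outs here: cellular ATP measured by luminescence after 4 days of exposure, 3-fold dilution series from 10 µM, DMSO vehicle-treated cells define 100%, cell-free medium wells −100%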
MV-4-11 cells = test: Cell growth inhibition assay (CellTiter-Glo), MV-4-11; conditions: for GI50: Homo sapiens, MV4-11, read-out: MV-4-11 GI50; for MV-4-11 TGI: MV-4-11 cells, total growth inhibition, CellTiter-Glo;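 on all read-outs here: cellular ATP luminescence after 4 days, 3-fold dilution series from 10 µM top dose, vehicle (0.1% DMSO) set to 100%, cell-free medium set to −100%, day 0 corrected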
BRD3 (His-Brd3(20-477)) = BRD3 (His-Brd3(20-477)) (Homo sapiens (Human), UniProt Q15059); test: TR-FRET in-vitro binding assay for BRD3; conditions: single determination or n ≧ 2 independent determinations, read-out: Biochemical IC50 BRD3
Description: as §1, §2, §3, §4, §5, §6, §7

BRD2 (His-Brd2(60-472)) = BRD2 (His-Brd2(60-472)) (Homo sapiens (Human), UniProt P25440); test: TR-FRET in-vitro binding assay for BRD2; conditions: single determination or n ≧ 2 independent determinations, read-out: Biochemical IC50 BRD2
Description: as §1, §2, §3, §4, §5, §6, §7

[1] = biological target: CREBBP bromodomain (His-CREBBP(1081-1197)) (Homo sapiens (Human), UniProt Q92793); test: AlphaScreen in-vitro binding assay for CREBBP; conditions: single determination or n ≧ 2 independent determinations, read-out: Biochemical IC50 CREBBP
Description: AlphaScreen In-Vitro Binding Assay for CREBBP
In order to assess bromodomain selectivity, we set up a binding assay using the bromodomain encoded by the CREBBP gene. […] Reactions were incubated at 30° C. for 35 minutes. Subsequently 4.5 μl per well detection mix (50 mM HEPES, pH 7.5, 0.005% Tween20, 0.02% BSA, 150 mM NaCl, 45 μg/ml Ni-chelate acceptor beads, 45 μg/mIstreptavidin-donor beads) (Perkin Elmer)) were added. After 60 minutes incubation at room temperature, plates were measured in a Perkin Elmer EnVision multilabel reader. IC50 values were determined from percent inhibition values at different compound concentrations by non-linear regression analysis.
as §3, §4, §5, §6, §7

CREBBP bromodomain (His-CREBBP(1081-1197)), sequence (Q92793 1081-1197): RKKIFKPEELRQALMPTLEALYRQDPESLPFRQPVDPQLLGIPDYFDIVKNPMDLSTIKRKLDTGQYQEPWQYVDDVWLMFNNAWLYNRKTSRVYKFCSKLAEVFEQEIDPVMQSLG
BRD3 (His-Brd3(20-477)), sequence (Q15059 20-477): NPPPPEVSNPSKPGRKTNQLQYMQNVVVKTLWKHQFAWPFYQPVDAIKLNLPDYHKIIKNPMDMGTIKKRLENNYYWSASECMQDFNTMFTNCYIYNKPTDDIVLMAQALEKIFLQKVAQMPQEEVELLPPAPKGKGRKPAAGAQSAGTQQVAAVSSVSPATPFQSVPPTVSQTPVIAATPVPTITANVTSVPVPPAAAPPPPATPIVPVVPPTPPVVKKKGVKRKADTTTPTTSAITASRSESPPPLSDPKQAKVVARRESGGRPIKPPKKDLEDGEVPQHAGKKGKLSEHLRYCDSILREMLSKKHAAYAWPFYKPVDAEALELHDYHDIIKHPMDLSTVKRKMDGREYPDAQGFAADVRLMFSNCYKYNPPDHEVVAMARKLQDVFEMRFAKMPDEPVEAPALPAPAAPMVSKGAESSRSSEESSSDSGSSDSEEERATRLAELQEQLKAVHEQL
BRD2 (His-Brd2(60-472)), sequence (P25440 60-472): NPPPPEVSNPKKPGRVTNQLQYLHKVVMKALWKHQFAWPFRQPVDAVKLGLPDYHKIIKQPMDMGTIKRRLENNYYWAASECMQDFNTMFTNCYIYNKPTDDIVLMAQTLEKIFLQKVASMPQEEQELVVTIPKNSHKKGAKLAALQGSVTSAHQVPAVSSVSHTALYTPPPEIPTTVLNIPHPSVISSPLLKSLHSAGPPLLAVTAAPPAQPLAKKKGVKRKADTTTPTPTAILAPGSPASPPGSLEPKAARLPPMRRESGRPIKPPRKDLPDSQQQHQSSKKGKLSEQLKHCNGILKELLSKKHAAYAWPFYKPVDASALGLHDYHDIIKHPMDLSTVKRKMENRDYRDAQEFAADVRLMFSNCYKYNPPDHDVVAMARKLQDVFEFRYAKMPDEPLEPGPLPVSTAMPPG

| GI50 (THP-1 cells) [nM] | IC50 (BRD4 (His-Brd4(44-477))) [nM] | GI50 (K-562 cells) [nM] | GI50 (MV-4-11 cells) [nM] | IC50 (BRD3 (His-Brd3(20-477))) [nM] | IC50 (BRD2 (His-Brd2(60-472))) [nM] | IC50 [1] [nM] | Compound | THP-1 TGI (THP-1 cells) [nM] | K-562 TGI (K-562 cells) [nM] | MV-4-11 TGI (MV-4-11 cells) [nM] |
| --- | --- | --- | --- | --- | --- | --- | --- | --- | --- | --- |
| 158 | 52 | 381 | 87.5 | 68 | 55 |  | Cc1cc(N2C(=O)c3nc(-c4nccs4)n(C(C)C)c3C2c2ccc(Cl)cc2)cn(C)c1=O (stereo not drawn) [Example 23, 6-(4-chlorophenyl)-5-(1,5-dimethyl-6-oxo-1,6-dihydropyridin-3-yl)-1-isopropyl-2-(thiazol-2-yl)-5,6-dihydropyrrolo[3,4-d]imidazol-4(1H)-one] | 311 | >10000 | 143 |
| 118 | 99 | 528 | 65.7 | 79 | 120 |  | Cc1nc(C)c(-c2nc3c(n2C(C)C)C(c2ccc(Cl)cc2)N(c2cc(C)c(=O)n(C)c2)C3=O)s1 (stereo not drawn) [Example 25, 6-(4-chlorophenyl)-5-(1,5-dimethyl-6-oxo-1,6-dihydropyridin-3-yl)-2-(2,4-dimethylthiazol-5-yl)-1-isopropyl-5,6-dihydropyrrolo[3,4-d]imidazol-4(1H)-one] | 209 | >10000 | 90.4 |
|  | 170 |  |  | 130 | 180 |  | Cc1cc(N2C(=O)c3nc(-c4cccnc4F)n(C)c3C2c2ccc(Cl)cc2)cn(C)c1=O (stereo not drawn) [Example 32, 6-(4-chlorophenyl)-5-(1,5-dimethyl-6-oxo-1,6-dihydropyridin-3-yl)-2-(2-fluoropyridin-3-yl)-1-methyl-5,6-dihydropyrrolo[3,4-d]imidazol-4(1H)-one] |  |  |  |
| 62.7 | 25 | 244 | 34.4 | 22.5 |  | 525 | Cc1cc(N2C(=O)c3nc(C4=CCOCC4)[nH]c3[C@H]2c2ccc(Cl)cc2)cn(C)c1=O [Example 152, (R)-6-(4-chlorophenyl)-2-(3,6-dihydro-2H-pyran-4-yl)-5-(1,5-dimethyl-6-oxo-1,6-dihydropyridin-3-yl)-5,6-dihydropyrrolo[3,4-d]imidazol-4(1H)-one] | 135.5 | >10000 | 57.3 |
| 4.6 | < 11 | 25.8 | 5.95 | < 11 |  | > 37000 | Cc1cc(N2C(=O)c3nc(C4=CCOCC4)n(C(C)C)c3C2c2ccc(Cl)cc2)nc2c1nnn2C (stereo not drawn) [Example 160, 6-(4-chlorophenyl)-2-(3,6-dihydro-2H-pyran-4-yl)-5-(3,7-dimethyl-3H-[1,2,3]triazolo[4,5-b]pyridin-5-yl)-1-isopropyl-5,6-dihydropyrrolo[3,4-d]imidazol-4(1H)-one] | 6.383 | >7000 | 4.973 |
| 5.03 | 11.5 | 41 | 4.37 | 13 |  | > 37000 | Cc1cc(N2C(=O)c3nc(C4=CCOCC4)[nH]c3C2c2ccc(Cl)cc2)nc2c1nnn2C (stereo not drawn) [Example 162, 6-(4-chlorophenyl)-2-(3,6-dihydro-2H-pyran-4-yl)-5-(3,7-dimethyl-3H-[1,2,3]triazolo[4,5-b]pyridin-5-yl)-5,6-dihydropyrrolo[3,4-d]imidazol-4(1H)-one] | 10.54 | >7000 | 11.12 |
| 15.8 | 13 | 53.3 | 15.5 | 16 |  | > 37000 | COc1ncccc1-c1nc2c([nH]1)C(c1ccc(Cl)cc1)N(c1cc(C)c3nnn(C)c3n1)C2=O (stereo not drawn) [Example 163, 6-(4-chlorophenyl)-5-(3,7-dimethyl-3H-[1,2,3]triazolo[4,5-b]pyridin-5-yl)-2-(2-methoxypyridin-3-yl)-5,6-dihydropyrrolo[3,4-d]imidazol-4(1H)-one] | 25.75 | >10000 | 29.05 |
| 1.12 | < 11 | 13.2 | 0.887 | < 11 |  | 11200 | Cc1cc(N2C(=O)c3nc(C4=CCOCC4)n(C(C)C)c3[C@H]2c2ccc(Cl)cc2)nc2c1nnn2C [Example 164, (R)-6-(4-chlorophenyl)-2-(3,6-dihydro-2H-pyran-4-yl)-5-(3,7-dimethyl-3H-[1,2,3]triazolo[4,5-b]pyridin-5-yl)-1-isopropyl-5,6-dihydropyrrolo[3,4-d]imidazol-4(1H)-one] | 2.43 | >10000 | 1.83 |
| 4 | 19 | 47.9 | 4.12 | 18 |  | 14800 | Cc1cc(N2C(=O)c3nc(C4=CCOCC4)[nH]c3[C@H]2c2ccc(Cl)cc2)nc2c1nnn2C [Example 165, (R)-6-(4-chlorophenyl)-2-(3,6-dihydro-2H-pyran-4-yl)-5-(3,7-dimethyl-3H-[1,2,3]triazolo[4,5-b]pyridin-5-yl)-5,6-dihydropyrrolo[3,4-d]imidazol-4(1H)-one] | 15.67 | >10000 | 12.74 |
| 7.54 | 13 | 84.6 | 5.42 | 12 |  | 33100 | COc1ncccc1-c1nc2c([nH]1)[C@@H](c1ccc(Cl)cc1)N(c1cc(C)c3nnn(C)c3n1)C2=O [Example 166, (R)-6-(4-chlorophenyl)-5-(3,7-dimethyl-3H-[1,2,3]triazolo[4,5-b]pyridin-5-yl)-2-(2-methoxypyridin-3-yl)-5,6-dihydropyrrolo[3,4-d]imidazol-4(1H)-one] | 11.28 | >10000 | 8.15 |
| 6.28 | 13 | 19.6 | 5.22 | 17 |  | 980 | Cc1cc(N2C(=O)c3nc(C4CCOC4)n(C(C)C)c3[C@H]2c2ccc(Cl)cc2)cc2c1nnn2C (stereo partly drawn) [Example 172, (6R)-6-(4-chlorophenyl)-5-(1,4-dimethyl-1H-benzo[d][1,2,3]triazol-6-yl)-1-isopropyl-2-(tetrahydrofuran-3-yl)-5,6-dihydropyrrolo[3,4-d]imidazol-4(1H)-one] | 12.26 | >10000 | 10.33 |

| Compound | GI50 (THP-1 cells) [nM] | IC50 (BRD4 (His-Brd4(44-477))) [nM] | GI50 (K-562 cells) [nM] | GI50 (MV-4-11 cells) [nM] | IC50 (BRD3 (His-Brd3(20-477))) [nM] | IC50 (BRD2 (His-Brd2(60-472))) [nM] | IC50 [1] [nM] | THP-1 TGI (THP-1 cells) [nM] | K-562 TGI (K-562 cells) [nM] | MV-4-11 TGI (MV-4-11 cells) [nM] |
| --- | --- | --- | --- | --- | --- | --- | --- | --- | --- | --- |
| COc1ncccc1-c1nc2c(n1C(C)C)C(c1ccc(Cl)cc1)N(c1cc(C)c3nnn(C)c3c1)C2=O (racemic) [Example 77, 6-(4-chlorophenyl)-5-(1,4-dimethyl-1H-benzo[d][1,2,3]triazol-6-yl)-1-isopropyl-2-(2-methoxypyridin-3-yl)-5,6-dihydropyrrolo[3,4-d]imidazol-4(1H)-one] | 7.94 | < 24 | 21.5 | 4.93 | 39 | 52 |  | 21.7 | >10000 | 9.36 |
